{
  "source": "patent US20030139372A1",
  "about": "“Modulation of bone formation” (priority 2000, published 2003)",
  "key": {"bone forming cells": {"test_system": "bone forming cells", "assay": "Bone anabolic activity from CFU-f and NASP cell assays combined with neonatal rat calvarial organ cultures", "assay_type": "cell-based", "settings": "for bone anabolic activity: useful activity taken as equivalent to that of PGE2", "excerpt": "The main reason for the lack of understanding of the cellular basis for the actions of bone anabolic drugs is that there exists, at present, no single in vitro assay which responds to these drugs in an appropriate manner. However, we have now developed a number of assays which, when used in combination with neonatal rat calvarial organ cultures, are able to predict bone anabolic agents.\nIn the accompanying Figures, which are purely illustrative and not limiting on the present invention, the effect of certain compounds is shown on alkaline phosphatase activity, calcium uptake and collagen synthesis, respectively, with the final bar showing the cumulative and determinative effect of the compound on bone anabolism:\nAs noted above, there is no single assay that can reliably report on bone anabolic activity. Individual assays can identify certain putative bone anabolic agents but as there are many bone anabolic agents which act by a number of mechanisms, many remain unidentified. By using the CFU-f and the NASP cell assays in combination with neonatal rat calvarial organ cultures, bone anabolic agents can be reliably identified as the false negatives are reduced to a minimum."}, "[1]": {"test_system": "whole bone marrow cells (BMC)", "assay": "Fibroblastic colony forming unit (CFU-f) cultures of whole bone marrow cells", "assay_type": "cell-based, rat", "settings": "for colony numbers: CFU-f colonies", "protocol": "Whole bone marrow cells (BMC's) were obtained from the tibias and femurs of 125 g male Wistar rats. The bones were removed under aseptic conditions and all soft adherent tissue removed. An end of each bone was removed, a hole made in the opposing end with an 18 gauge syringe needle, and the cells isolated centrifugally [Dobson K. R., et al., Calcif tissue Int., 65:411-413 (1999)]. The cells were dispersed in 10 ml DMEM (containing 12% FCS, 1×10^−8 M dexamethasone and […] ascorbic acid) by repeated pipetting, and a single-cell suspension achieved by forcefully expelling the cells through a 20 gauge syringe needle. The cells were then used in the protocols described below. To analyse the numbers of fibroblastic-colony forming units (CFU-f) in either whole BMC or high density non-adherent stromal precursor (NASP) cell cultures, 10^6 nucleated BMC, or the non-adherent cells from the high density NASP cellcultures, were plated out on 55 cm^2 petri dishes in DMEM containing; 12% FCS, 1×10^−8 M dexamethasone and 50 μg/ml ascorbic acid. In the case of the CFU-f analysis of whole BMC, the test agents were added once at the beginning of the culture period. In the case of NASP cell cultures, the test agents were added at the beginning of the NASP cell cultures themselves and the CFU-f assay only used to assess the number of CFU-f generated during the NASP cell culture. The medium was changed after 5 days and, thereafter, twice weekly. The cultures were maintained for 18 days, after which the cells were washed with PBS and fixed, by the addition of cold ethanol. After fixation, the cultures were stained for alkaline phosphatase (APase) positive, calcium positive, collagen positive and total colonies as described by Scutt & Bertram (J. Bone and Mineral Res. 10:474-489, 1995). The cultures were then photographed using a digital camera and the APase positive, calcium positive, collagen positive and total colonies quantitated using Bioimage “Intelligent Quantifier” image analysis software [Dobson K., et al., A cost effective method for the automatic quantitative analysis of fibroblastic-colony forming units with osteoblastic potential. Calcif. Tissue Int. 65:166-172 (1999)]."}, "[2]": {"test_system": "non-adherent stromal precursor (NASP) cells", "assay": "High-density non-adherent stromal precursor (NASP) cell cultures", "assay_type": "cell-based, rat", "settings": "4 day NASP culture then CFU-f readout; FIG. 1", "protocol": "Whole bone marrow cells (BMC's) were obtained from the tibias and femurs of 125 g male Wistar rats. The bones were removed under aseptic conditions and all soft adherent tissue removed. An end of each bone was removed, a hole made in the opposing end with an 18 gauge syringe needle, and the cells isolated centrifugally [Dobson K. R., et al., Calcif tissue Int., 65:411-413 (1999)]. The cells were dispersed in 10 ml DMEM (containing 12% FCS, 1×10^−8 M dexamethasone and […] ascorbic acid) by repeated pipetting, and a single-cell suspension achieved by forcefully expelling the cells through a 20 gauge syringe needle. The cells were then used in the protocols described below. […]\nAfter fixation, the cultures were stained for alkaline phosphatase (APase) positive, calcium positive, collagen positive and total colonies as described by Scutt & Bertram (J. Bone and Mineral Res. 10:474-489, 1995). The cultures were then photographed using a digital camera and the APase positive, calcium positive, collagen positive and total colonies quantitated using Bioimage “Intelligent Quantifier” image analysis software [Dobson K., et al., A cost effective method for the automatic quantitative analysis of fibroblastic-colony forming units with osteoblastic potential. […]"}, "neonatal rat calvariae": {"test_system": "neonatal rat calvariae", "assay": "Collagen synthesis in organ culture of neonatal rat calvariae", "assay_type": "cell-based", "settings": "[3H]proline incorporation into collagenase-digestible protein; FIG. 1", "protocol": "One day old rat pups were killed and the calvariae (skull cases) dissected out. The calvariae were then cut along the sagittal suture to give two hemicalvariae per foetus. Each bone was cultured in 2 ml DMEM containing 1 mg/ml BSA, 50 μg/ml ascorbic acid, 60 μg/ml penicillin, and 50 μg/ml streptomycin and 1×10^−8M dexamethasone in 35 mm tissue culture wells. After 24 h, the medium was replaced with fresh medium, any test agent added, and the tissue cultured for a further 48 h.\nIn this assay, each bone was pulsed with 10 μCi of [^3H]proline for 24 h at the end of the culture period. The bones were washed successively in trichloroacetic acid (TCA), acetone, and ether, and then dried. The incorporation of [^3H]proline into collagenase-digestible protein (CDP) was determined using purified bacterial collagenase by the method of Peterkofsky B. and Diegelmann R. (Biochemistry, 6: 988-994, 1971) and expressed as dpm."}},
  "note": "Entries after “also recorded” stand apart in the source; their conditions may differ.",
  "data": [
    {"compound": "CCCCC/C=C\\C/C=C\\CCCCCCCC(=O)O", "note": "[Linoleic acid, linoleic acid]", "values": [
      {"measurement": "bone anabolic activity", "setting": "bone forming cells", "result": "showed bone anabolic activity"}
    ]},
    {"compound": "CCCCCCCCCCCCCCCC(=O)OC", "note": "[Methyl palmitate, methyl palmitate]", "values": [
      {"measurement": "colony numbers", "setting": "[1]", "result": "produced stimulation"}
    ]},
    {"compound": "CCCCC[C@H](O)/C=C/[C@H]1C=CC(=O)[C@@H]1CCCCCCC(=O)O", "note": "[PGA1]", "values": [
      {"measurement": "colony numbers", "setting": "[1]", "result": "significant dose dependent increase"},
      {"measurement": "response in CFU-f assay", "setting": "[1]; whole BMC, 18 day culture, FIG. 1", "result": "positive response"},
      {"measurement": "response in NASP cell assay", "setting": "[2]", "result": "positive response"},
      {"measurement": "response in calvarial collagen synthesis assay", "setting": "neonatal rat calvariae", "result": "positive response"},
      {"measurement": "bone anabolic activity compared with PGE2", "setting": "bone forming cells; magnitude relative to PGE2", "result": "comparable with that produced by PGE2; also recorded: at least as good as that of PGE2"}
    ]},
    {"compound": "CCCCC[C@H](O)/C=C/[C@H]1C=CC(=O)[C@@H]1C/C=C\\CCCC(=O)O", "note": "[PGA2]", "values": [
      {"measurement": "bone anabolic activity", "setting": "bone forming cells", "result": "useful activity"}
    ]},
    {"compound": "CC#CCC(C)[C@H](O)/C=C/[C@@H]1[C@H]2C/C(=C/CCCC(=O)O)C[C@H]2C[C@H]1O", "note": "(some centres unmarked) [iloprost]", "values": [
      {"measurement": "colony numbers", "setting": "[1]", "result": "stimulation comparable with that of PGA1"}
    ]},
    {"compound": "CCCCCCCC/C=C\\CCCCCCCC(=O)O", "note": "[oleic acid]", "values": [
      {"measurement": "bone anabolic activity", "setting": "bone forming cells", "result": "useful activity"}
    ]},
    {"compound": "c1cc2c(cc1[C@H]1OC[C@H]3[C@@H]1CO[C@@H]3c1ccc3c(c1)OCO3)OCO2", "note": "[sesamin]", "values": [
      {"measurement": "bone anabolic activity", "setting": "bone forming cells", "result": "useful activity"}
    ]}
  ]
}
